According to the NIST ThermoML archive (doi:10.1021/je200811n):
Where “and” joins values, the source holds several entries; their conditions need not be identical. Equal entries are not always repeated. Numbers after ± are expanded uncertainties.

Conditions: Hot wire method

`F/C=C/C(F)(F)F` [trans-1,3,3,3-tetrafluoropropene] showed a thermal conductivity (341.16 K, 8206 kPa, Liquid) of 0.06693 ± 0.00076 W/m/K, a thermal conductivity (341.17 K, 3028 kPa, Liquid) of 0.06204 ± 0.0007 W/m/K and a thermal conductivity (341.17 K, 12132 kPa, Liquid) of 0.07036 ± 0.00078 W/m/K. For the same molecule, the thermal conductivity (341.2 K, 1573 kPa, Liquid) was 0.06027 ± 0.00068 W/m/K, the thermal conductivity (341.38 K, 96 kPa, Gas) was 0.01689 ± 0.00057 W/m/K and the thermal conductivity (341.39 K, 20076 kPa, Liquid) was 0.07508 ± 0.00083 W/m/K. It also gave a thermal conductivity (341.4 K, 194 kPa, Gas) of 0.01707 ± 0.00057 W/m/K, a thermal conductivity (341.4 K, 3026 kPa, Liquid) of 0.06202 ± 0.0007 W/m/K and a thermal conductivity (341.42 K, 8129 kPa, Liquid) of 0.06706 ± 0.00075 W/m/K. The thermal conductivity (341.42 K, 16390 kPa, Liquid) was 0.07285 ± 0.00081 W/m/K, the thermal conductivity (341.44 K, 21979 kPa, Liquid) was 0.07653 ± 0.00085 W/m/K and the thermal conductivity (341.45 K, 1581 kPa, Liquid) was 0.06025 ± 0.00068 W/m/K. For the same molecule, the thermal conductivity (341.48 K, 12128 kPa, Liquid) was 0.07023 ± 0.00079 W/m/K, the thermal conductivity (341.48 K, 20072 kPa, Liquid) was 0.07503 ± 0.00083 W/m/K and the thermal conductivity (341.49 K, 5174 kPa, Liquid) was 0.06424 ± 0.00072 W/m/K. It also gave a thermal conductivity (341.5 K, 3025 kPa, Liquid) of 0.06178 ± 0.0007 W/m/K, a thermal conductivity (341.51 K, 16388 kPa, Liquid) of 0.07271 ± 0.00081 W/m/K and a thermal conductivity (341.52 K, 8125 kPa, Liquid) of 0.0669 ± 0.00075 W/m/K. The thermal conductivity (341.52 K, 21981 kPa, Liquid) was 0.07638 ± 0.00085 W/m/K, the thermal conductivity (341.54 K, 1585 kPa, Liquid) was 0.05998 ± 0.00068 W/m/K and the thermal conductivity (341.58 K, 5172 kPa, Liquid) was 0.06405 ± 0.00072 W/m/K. For the same molecule, the thermal conductivity (341.58 K, 8204 kPa, Liquid) was 0.06619 ± 0.00074 W/m/K, the thermal conductivity (341.58 K, 12127 kPa, Liquid) was 0.07002 ± 0.00079 W/m/K and the thermal conductivity (341.64 K, 194 kPa, Gas) was 0.01696 ± 0.00057 W/m/K. It also gave a thermal conductivity (341.72 K, 673 kPa, Gas) of 0.01756 ± 0.00059 W/m/K, a thermal conductivity (341.75 K, 673 kPa, Gas) of 0.01724 ± 0.00058 W/m/K and a thermal conductivity (341.76 K, 3022 kPa, Liquid) of 0.0618 ± 0.0007 W/m/K. The thermal conductivity (341.77 K, 449 kPa, Gas) was 0.01756 ± 0.00059 W/m/K, the thermal conductivity (341.77 K, 450 kPa, Gas) was 0.01753 ± 0.00059 W/m/K and the thermal conductivity (341.81 K, 1588 kPa, Liquid) was 0.06 ± 0.00068 W/m/K. For the same molecule, the thermal conductivity (341.81 K, 20066 kPa, Liquid) was 0.07498 ± 0.00083 W/m/K, the thermal conductivity (341.83 K, 1416 kPa, Gas) was 0.01808 ± 0.00032 W/m/K and the thermal conductivity (341.84 K, 16385 kPa, Liquid) was 0.0727 ± 0.00081 W/m/K. The thermal conductivity (341.84 K, 21982 kPa, Liquid) was 0.07632 ± 0.00084 W/m/K, the thermal conductivity (341.87 K, 297 kPa, Gas) was 0.0174 ± 0.00058 W/m/K and the thermal conductivity (341.88 K, 8122 kPa, Liquid) was 0.06684 ± 0.00075 W/m/K. The thermal conductivity (341.91 K, 194 kPa, Gas) was 0.01763 ± 0.00059 W/m/K, the thermal conductivity (341.92 K, 12126 kPa, Liquid) was 0.06996 ± 0.00078 W/m/K and the thermal conductivity (341.92 K, 20063 kPa, Liquid) was 0.07481 ± 0.00083 W/m/K. The thermal conductivity (341.94 K, 8199 kPa, Liquid) was 0.0668 ± 0.00075 W/m/K, the thermal conductivity (341.95 K, 21979 kPa, Liquid) was 0.07618 ± 0.00084 W/m/K and the thermal conductivity (341.96 K, 16381 kPa, Liquid) was 0.07254 ± 0.0008 W/m/K. It also gave a thermal conductivity (341.97 K, 1251 kPa, Gas) of 0.01812 ± 0.00032 W/m/K, a thermal conductivity (341.97 K, 5173 kPa, Liquid) of 0.06395 ± 0.00072 W/m/K and a thermal conductivity (342 K, 8119 kPa, Liquid) of 0.06663 ± 0.00074 W/m/K. The thermal conductivity (342.04 K, 96 kPa, Gas) was 0.0178 ± 0.00059 W/m/K, the thermal conductivity (342.04 K, 671 kPa, Gas) was 0.01723 ± 0.00058 W/m/K and the thermal conductivity (342.04 K, 1049 kPa, Gas) was 0.01784 ± 0.00032 W/m/K. For the same molecule, the thermal conductivity (342.04 K, 1050 kPa, Gas) was 0.01784 ± 0.00032 W/m/K, the thermal conductivity (342.04 K, 12122 kPa, Liquid) was 0.06981 ± 0.00078 W/m/K and the thermal conductivity (342.06 K, 8193 kPa, Liquid) was 0.0666 ± 0.00074 W/m/K. The thermal conductivity (342.08 K, 870 kPa, Gas) was 0.01766 ± 0.00059 W/m/K, the thermal conductivity (342.09 K, 450 kPa, Gas) was 0.0176 ± 0.00059 W/m/K and the thermal conductivity (342.09 K, 868 kPa, Gas) was 0.01764 ± 0.00059 W/m/K. It also gave a thermal conductivity (342.09 K, 5187 kPa, Liquid) of 0.06375 ± 0.00072 W/m/K, a thermal conductivity (342.1 K, 450 kPa, Gas) of 0.01757 ± 0.00059 W/m/K and a thermal conductivity (342.19 K, 297 kPa, Gas) of 0.0174 ± 0.00058 W/m/K. The thermal conductivity (342.2 K, 297 kPa, Gas) was 0.01731 ± 0.00058 W/m/K, the thermal conductivity (342.25 K, 1250 kPa, Gas) was 0.01811 ± 0.00032 W/m/K and the thermal conductivity (342.26 K, 194 kPa, Gas) was 0.01748 ± 0.00058 W/m/K. The thermal conductivity (342.26 K, 1414 kPa, Gas) was 0.01822 ± 0.00032 W/m/K, the thermal conductivity (342.27 K, 20059 kPa, Liquid) was 0.07476 ± 0.00083 W/m/K and the thermal conductivity (342.3 K, 21979 kPa, Liquid) was 0.07611 ± 0.00084 W/m/K. The thermal conductivity (342.32 K, 16372 kPa, Liquid) was 0.07244 ± 0.0008 W/m/K, the thermal conductivity (342.33 K, 1047 kPa, Gas) was 0.01784 ± 0.00032 W/m/K and the thermal conductivity (342.33 K, 1048 kPa, Gas) was 0.01781 ± 0.00032 W/m/K. It also gave a thermal conductivity (342.36 K, 669 kPa, Gas) of 0.01728 ± 0.00058 W/m/K, a thermal conductivity (342.37 K, 670 kPa, Gas) of 0.01729 ± 0.00058 W/m/K and a thermal conductivity (342.38 K, 866 kPa, Gas) of 0.01767 ± 0.00059 W/m/K. It also gave a thermal conductivity (342.39 K, 867 kPa, Gas) of 0.01765 ± 0.00059 W/m/K, a thermal conductivity (342.4 K, 8117 kPa, Liquid) of 0.06658 ± 0.00074 W/m/K and a thermal conductivity (342.42 K, 450 kPa, Gas) of 0.01758 ± 0.00059 W/m/K. The thermal conductivity (342.43 K, 451 kPa, Gas) was 0.01761 ± 0.00059 W/m/K, the thermal conductivity (342.43 K, 12120 kPa, Liquid) was 0.06971 ± 0.00078 W/m/K and the thermal conductivity (342.43 K, 21977 kPa, Liquid) was 0.07598 ± 0.00084 W/m/K. For the same molecule, the thermal conductivity (342.44 K, 97 kPa, Gas) was 0.01786 ± 0.0006 W/m/K, the thermal conductivity (342.46 K, 8190 kPa, Liquid) was 0.06655 ± 0.00074 W/m/K and the thermal conductivity (342.46 K, 16363 kPa, Liquid) was 0.07249 ± 0.0008 W/m/K. The thermal conductivity (342.55 K, 1411 kPa, Gas) was 0.01807 ± 0.00032 W/m/K, the thermal conductivity (342.56 K, 296 kPa, Gas) was 0.01736 ± 0.00058 W/m/K and 0.01734 ± 0.00058 W/m/K and the thermal conductivity (342.56 K, 1249 kPa, Gas) was 0.01814 ± 0.00032 W/m/K. The thermal conductivity (342.56 K, 8113 kPa, Liquid) was 0.06632 ± 0.00074 W/m/K, the thermal conductivity (342.58 K, 12118 kPa, Liquid) was 0.06949 ± 0.00077 W/m/K and the thermal conductivity (342.59 K, 1260 kPa, Gas) was 0.01776 ± 0.00032 W/m/K. The thermal conductivity (342.64 K, 1045 kPa, Gas) was 0.01782 ± 0.00032 W/m/K, the thermal conductivity (342.64 K, 1046 kPa, Gas) was 0.01782 ± 0.00032 W/m/K and the thermal conductivity (342.65 K, 194 kPa, Gas) was 0.01771 ± 0.00059 W/m/K. It also gave a thermal conductivity (342.71 K, 668 kPa, Gas) of 0.01733 ± 0.00058 W/m/K, a thermal conductivity (342.71 K, 864 kPa, Gas) of 0.01769 ± 0.00059 W/m/K and a thermal conductivity (342.72 K, 865 kPa, Gas) of 0.01767 ± 0.00059 W/m/K. It also gave a thermal conductivity (342.78 K, 20073 kPa, Liquid) of 0.07479 ± 0.00083 W/m/K, a thermal conductivity (342.79 K, 450 kPa, Gas) of 0.01763 ± 0.00059 W/m/K and a thermal conductivity (342.79 K, 451 kPa, Gas) of 0.01763 ± 0.00059 W/m/K. It also gave a thermal conductivity (342.81 K, 21978 kPa, Liquid) of 0.07589 ± 0.00084 W/m/K, a thermal conductivity (342.85 K, 97 kPa, Gas) of 0.01784 ± 0.0006 W/m/K and a thermal conductivity (342.85 K, 16357 kPa, Liquid) of 0.07241 ± 0.0008 W/m/K. For the same molecule, the thermal conductivity (342.94 K, 296 kPa, Gas) was 0.0174 ± 0.00058 W/m/K and 0.01739 ± 0.00058 W/m/K, the thermal conductivity (342.96 K, 20077 kPa, Liquid) was 0.07456 ± 0.00083 W/m/K and the thermal conductivity (342.97 K, 1044 kPa, Gas) was 0.01783 ± 0.00032 W/m/K. The thermal conductivity (342.97 K, 21978 kPa, Liquid) was 0.07571 ± 0.00084 W/m/K, the thermal conductivity (342.98 K, 1044 kPa, Gas) was 0.01784 ± 0.00032 W/m/K and the thermal conductivity (342.98 K, 12116 kPa, Liquid) was 0.06939 ± 0.00077 W/m/K. The thermal conductivity (343.02 K, 16352 kPa, Liquid) was 0.07225 ± 0.0008 W/m/K, the thermal conductivity (343.05 K, 862 kPa, Gas) was 0.01767 ± 0.00059 W/m/K and the thermal conductivity (343.05 K, 863 kPa, Gas) was 0.0177 ± 0.00059 W/m/K. It also gave a thermal conductivity (343.06 K, 194 kPa, Gas) of 0.01766 ± 0.00059 W/m/K, a thermal conductivity (343.07 K, 666 kPa, Gas) of 0.01736 ± 0.00058 W/m/K and a thermal conductivity (343.08 K, 667 kPa, Gas) of 0.01735 ± 0.00058 W/m/K. The thermal conductivity (343.15 K, Liquid) was 0.05993 ± 0.00044 W/m/K, the thermal conductivity (343.16 K, 1405 kPa, Gas) was 0.01819 ± 0.00032 W/m/K and the thermal conductivity (343.25 K, 1255 kPa, Gas) was 0.01787 ± 0.00032 W/m/K. For the same molecule, the thermal conductivity (343.28 K, 96 kPa, Gas) was 0.01785 ± 0.0006 W/m/K, the thermal conductivity (343.32 K, 1043 kPa, Gas) was 0.01783 ± 0.00032 W/m/K and the thermal conductivity (343.35 K, 296 kPa, Gas) was 0.01753 ± 0.00059 W/m/K. For the same molecule, the thermal conductivity (343.48 K, 194 kPa, Gas) was 0.01763 ± 0.00059 W/m/K.
